“And” between values parts separate entries of the source, which are not always exact repeats. Equal entries are not always repeated.
What was measured:
[1] = system: patients with severe psoriasis who were non-responders to high-dosage etanercept; experiment: Adverse events, open-label adalimumab in non-responders to high-dosage etanercept; format: in vivo, human; conditions: 12 weeks
Description: Details on clinical course and adverse events were recorded, along with measurements of PASI and Dermatology Life Quality Index (DLQI) at baseline and Weeks 2, 4, 8, and 12.

[2] = system: patients with moderate to severe chronic plaque psoriasis; experiment: PASI response and PGA, 120-week open-label extension study; format: in vivo, human; conditions: 40 mg eow, as observed
Source text: Exclusion criteria included prior TNF-antagonist therapy.

[3] = system: patients with moderate to severe chronic plaque psoriasis; experiment: Adverse events, CHAMPION 16-week Phase III trial; conditions: 16-week study
Source text: The study was a multi-center, 16-week, randomized controlled Phase III trial. The main inclusion criteria included: • Clinical diagnosis of psoriasis for ≧1 year • Affected body surface area (BSA)≧10% • Psoriasis Area and Severity Index (PASI)≧10 The main exclusion criteria was previous use of MTX or systemic anti-TNF therapy.

[4] = Adalimumab serum concentrations by ELISA, Phase II trial; format: in vivo, human; conditions: for steady-state concentration: 40 mg eow dosing; for mean adalimumab serum concentration: 80 mg at Week 0 and 40 mg at Week 1
[5] = system: patients with moderate to severe psoriasis; experiment: Adverse events, open-label extension of REVEAL
[6] = system: patients with chronic plaque psoriasis; conditions: in vivo
Source text: (§1) This 16-week, multicenter, open-label, Phase IIIb trial enrolled patients with chronic plaque psoriasis who were having a suboptimal response to ETN (Physician's Global Assessment [PGA]≧mild with months of therapy, or ≧3 months of therapy and deterioration of efficacy), MTX (PGA≧mild with ≧4 months of therapy), or narrow-band ultraviolet B (NB-UVB) phototherapy (PGA moderate with months of therapy). […] The primary endpoint was the proportion of patients who achieved PGA of clear or minimal at week 16. A secondary endpoint was the proportion achieving ≧1 grade of PGA improvement. Safety was assessed throughout the study. Efficacy analyses were intention to treat, with nonresponder imputation used for missing data. Efficacy and safety results were analyzed overall and for each prior-treatment group.

[7] = system: patients with severe psoriasis who were non-responders to high-dosage etanercept; experiment: ESR and CRP, open-label adalimumab in non-responders to high-dosage etanercept; format: in vivo, human; conditions: Week 12; individual patients 1-5 (c1-c5); weekly adalimumab
Source text: This was an open-label prospective evaluation of adalimumab (HUMIRA®, Abbott Laboratories, Abbott Park, Ill., USA). Patients who were non-responders to etanercept were recruited from the Severe Psoriasis Clinic at St John's Institute of Dermatology in London. […] Inclusion criteria included male and female patients more than 18 years of age with plaque psoriasis (Table 98). The study was approved by St Thomas' Research Ethics Committee, and informed consent was obtained from all participants.

[8] = system: patients with chronic plaque psoriasis; experiment: Safety, 16-week open-label Phase IIIb trial after suboptimal response to ETN, MTX or NB-UVB
Source text: as §1

[9] = system: patients with moderate to severe psoriasis; experiment: PASI response, open-label extension (OLE) of REVEAL; format: in vivo, human
Description: Laboratory parameters and adverse events were also recorded.
The REVEAL study had two independent primary endpoints. The first endpoint was the proportion of patients achieving 75 percent improvement in skin clearance after 16 weeks. The second endpoint was the proportion of patients who lost adequate response through week 52 after stopping treatment with HUMIRA at week 33. Signs of psoriasis were evaluated using the Psoriasis Area and Severity Index (PASI), among other measures. […] At week 52, the start of the OLE period, patients randomized at week 33, as well as patients originally in the placebo group at week 0, were able to enter the OLE period.

[10] = system: patients with moderate to severe chronic plaque psoriasis; conditions: in vivo
[11] = MTX N = 110, Adalimumab N = 107
[12] = Week 0 of OLE, n = 233, ITT, LOCF, 40 mg eow
[13] = Week 12 of OLE, n = 233, ITT, LOCF, 40 mg eow
[14] = Week 24 of OLE, n = 233, ITT, LOCF, 40 mg eow
[15] = after 12 months of continuous adalimumab dosing, ITT (233 patients)
[16] = after 18 months, ITT (233 patients)

## Adalimumab: a human anti-TNF mAb, described in U.S. Pat. No. 6,090,382 as D2E7 (HUMIRA, Abbott Laboratories)
[1]
  Serious Adverse Events: No serious adverse events were reported
[2]; Week 12
  PASI 50 response, % Patients: 78.7%
  PASI 75 response, % Patients: 56.2%
  PASI 90 response, % Patients: 29.2%
  PASI 100 response, % Patients: 11.2%
[2]; Week 24
  PASI 50 response, % Patients: 86.7%
  PASI 75 response, % Patients: 74.7%
  PASI 90 response, % Patients: 52%
  PASI 100 response, % Patients: 20%
[2]; Week 48
  PASI 50 response, % Patients: 96.7%
  PASI 75 response, % Patients: 81.7%
  PASI 90 response, % Patients: 61.7%
  PASI 100 response, % Patients: 31.7%
[2]; Week 72
  PASI 50 response, % Patients: 96.2%
  PASI 75 response, % Patients: 73.1%
  PASI 90 response, % Patients: 53.8%
  PASI 100 response, % Patients: 25%
[2]; Week 96
  PASI 50 response, % Patients: 92.5%
  PASI 75 response, % Patients: 75.5%
  PASI 90 response, % Patients: 52.8%
  PASI 100 response, % Patients: 24.5%
[2]; Week 120
  PASI 50 response, % Patients: 93.9%
  PASI 75 response, % Patients: 77.6%
  PASI 90 response, % Patients: 53.1%
  PASI 100 response, % Patients: 28.6%
[3]; [11]
  Any AE: 79 (74) n (%)
  Any AE leading to discontinuation: 1 (1) n (%)
  Any SAE: 2 (2) n (%)
[3]; common AE in ≧5% of patients
  Arthralgia: 6 (6) n (%)
  Gamma-Glutamyltransferase Increased: 2 (2) n (%)
  Headache: 14 (13) n (%)
  Nasopharyngitis: 30 (28) n (%)
  Nausea: 4 (4) n (%)
  Pruritus: 4 (4) n (%)
  Rhinitis: 3 (3) n (%)
  Rhinorrhea: 3 (3) n (%)
  Viral Infection: 0 (0) n (%)
[4]; Week 11
  steady-state concentration: 6.0 µg/mL
[4]; Week 12
  steady-state concentration: 6.9 µg/mL
[4]; Week 1
  mean adalimumab serum concentration: 6.0 µg/mL
[4]; Week 2
  mean adalimumab serum concentration: 8.8 µg/mL
[5]; First 24 weeks of OLE
  AEs leading to withdrawal, Patients (%): 1%
  Any AE, Patients (%): 47%
  Lymphoma, Patients (%): 0%
  Malignancy, Patients (%): 1%
  Non-melanoma skin cancer, Patients (%): 0%
  Serious AE, Patients (%): 3%
[5]; First 24 weeks of OLE, AEs occurring ≧5% of patients
  Nasopharyngitis, Patients (%): 5%
[5]; between Months 12-18
  patients with serious adverse events: 2.6%
[6]
  serious infection: One subject
[7]
  CRP: 7 mg/L and < 5 mg/L (3×) and recorded/<5 mg/L
  ESR: 13 mm/hr and 12 mm/hr (2×) and 2 mm/hr
[8]; 16-week trial
  malignancies: no malignancies were reported
[8]; all patients (2 MTX, 2 ETN)
  patients with >25% worsening in PASI scores: 2.6%
[9]; [12]
  PASI 75 response rate: 85%
  PASI 90 response rate: 84%
  PASI 100 response rate: 87%
[9]; [13]
  PASI 75 response rate: 59%
  PASI 90 response rate: 60%
  PASI 100 response rate: 63%
[9]; [14]
  PASI 75 response rate: 35%
  PASI 90 response rate: 33%
  PASI 100 response rate: 34%
[9]; [15]
  PASI 75 response rate: 85%
  PASI 90 response rate: 59%
  PASI 100 response rate: 35%
[9]; [16]
  PASI 75 response rate: 87%
  PASI 90 response rate: 63%
  PASI 100 response rate: 34%
[9]; re-randomized to adalimumab at Wk 33, did not lose adequate response, after 24 weeks in OLE
  PASI 75 response rate: 83%
[9]; re-randomized to adalimumab at Wk 33, lost adequate response, after 24 weeks in OLE
  PASI 75 response rate: 55%
[9]; re-randomized to placebo at Wk 33, did not lose adequate response, Wk 24 of OLE adalimumab
  PASI 75 response rate: 84%
[9]; re-randomized to placebo at Wk 33, lost adequate response, Wk 24 of OLE adalimumab
  PASI 75 response rate: 55%
[10]
  serious infections: no patients experienced serious infections

Reference: US9605064B2, “Methods and compositions for treatment of skin disorders” (AbbVie Biotechnology Ltd, priority 2006, dated 2017)
